The values below come from PMC9227536, “Prediction of Pharmacokinetics of IDP-73152 in Humans Using Physiologically-Based Pharmacokinetics” (Pharmaceutics, 2022).

Each structure is given as a SMILES string.

Data set [1] in a line: Stability in plasma, human. The data set is classed as in vitro ADME. The settings on record: humans plasma. The protocol: The unbound fractions of IDP-73152 in various matrices were measured according to the manufacturer's instructions for the rapid equilibrium dialysis (RED) device (ThermoFisher Scientific, Waltham, MA, USA). Briefly, IDP-73152 was added to the plasma or the microsomal/hepatocyte incubation buffer from various species (i.e., mouse, rat, dog, and human for microsomal incubation; rat for hepatocyte incubation) to obtain final concentrations of the compound at 0.3, 1, and 3 μM. After the membrane insert was placed in the RED plate, the solution containing IDP-73152 was added (400 μL) to the sample chamber, and the dialysis buffer (600 μL) was added to the buffer chamber. The RED plate was sealed with parafilm and then incubated at 37 °C in the orbital shaker (Lab Companion, Daejeon, Korea) at 100 rpm for 5 h. […] The IDP-73152 concentration in the buffer/sample chambers (i.e., CBuffer Chamber and CSample Chamber) was determined by an assay. Thus, the fraction unbound was defined as:(2) % Fraction unbound=(CBuffer Chamber/CSample Chamber)×100% When necessary, the stability of IDP-73152 in the matrix was also determined at 5 h. […] Accordingly, the kinetics of IDP-73152 instability were determined in the rat blood at a final concentration of 0.3 μM. […]

The nature of data set [2]: PBPK model prediction, humans. An excerpt: In this study, the PBPK model involving ten tissues (i.e., adipose tissue, brain, heart, kidney, liver, lung, muscle, skin, spleen, and testis (Figure 2; see Appendix A for detailed mathematical descriptions)) was considered to be applicable for the description of IDP-73152 PK in rats, mice, dogs, and humans. Physiological variables were obtained from the literature; they are summarized in Supplementary Table S1.
For the estimation of the volume of the distribution of IDP-73512 in rats, the steady-state volume of distribution (Vss) was calculated using the following equation [30]:(10) Vss=VP+Vrbc×EP+∑VT,i×KP,ss,i, where Vp, Vrbc, and VT,i are the volumes of plasma, red blood cells, and tissues, respectively. The erythrocyte-to-plasma partition coefficient (EP), is calculated by EP=1+(BP−1)/Hematocrit . The KP,ss for each tissue obtained from Equation (8) was applied for Equation (10). For the case of non-eliminating organs, the KP,ss was regarded as the tissue-to-plasma partition coefficient (KP) in PBPK equations (Appendix A). For the case of the liver—i.e., the eliminating organ—the KP,ss (KP,ss,LI) had to be corrected to account for the equilibrium being altered by the elimination. Thus, a PBPK-operative KP for liver (KP,LI) was calculated using the following equation [31]:(11) KP,LI=KP,ss,LI/(1−ER), where ER is the hepatic extraction ratio of the compound (i.e., CLh/(QLI·BP)). In this study, a compartmental absorption and transit (CAT) model consisting of stomach and five intestinal segments was considered for the description of the intestinal absorption kinetics of IDP-73152 in animals and humans. We assumed that the initial compartment denoted the stomach (Equation (12)), and the subsequent three compartments represented the small intestine and two additional compartments for the large intestine (i.e., a total of six compartments, with absorption occurring in the five intestinal compartments) (Equation (13)). The differential equations describing the rate of drug absorption and transit in the gastrointestinal tract can be written as:
For the intestine, viz. i = 1~5:(13) dMi/dt=Kt,i−1×Mi−1−(Kt,i+ka,i)×Mi, where Ms is the amount of drug in the stomach; Mi is the amount of drug in the i-th intestinal segment; Ks, Kt,i, and ka,i are the rate constants of gastric emptying, intestinal transit, and the segmental absorption rate, respectively. […] The absorption rate constant in the intestinal segments in humans, ka,i,human, was assumed to be identical along the segments and calculated as follows: first, Peff was empirically estimated from the Caco-2 cell permeability (Papp):(14) LogPeff=0.4926×LogPapp−0.1454
Then, ka,i,human for the intestinal segments i = 1~5 was calculated by (15) ka,1~5,human=2×Peff/R […]

Turning to `CC(C)(C)[C@H](NC(=O)[C@H](CC1CCCC1)CN(O)C=O)C(=O)N1CCC(NCc2cc(F)c(F)cc2F)CC1` [IDP-73152], the “percentage remaining in plasma at 5 h” value in data set [1] (5 h, 37 °C) is recorded as 98.2 ± 3.4%. The “stability in plasma” value in data set [1] (preliminary study) is recorded as “stable”. Further, in data set [2] (oral 640 mg), the AUC ratio is reported as 1.00 and the Cmax ratio is given as 0.498. Further, in data set [2] (oral 1280 mg), the AUC ratio is recorded as 1.12 and the Cmax ratio is 0.671.
